test system: IL-1β production in PMA-differentiated THP-1 cells; assay: IL-1β production in PMA-differentiated THP-1 cells stimulated with gramicidin (hTHP-1 assay containing 2% fetal bovine serum); assay type: cell-based, human; conditions: Homo sapiens, THP-1, Table B1; 2% fetal bovine serum; cells printed as numeric bound; read-out: hTHP-1 IC50 (Average IC50 of compounds in hTHP-1 assay)
Summary of the method: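 THP-1 cells were differentiated with PMA 20 ng/ml for 16-18 h, then plated at 50,000 cells/well in RPMI with 2% FBS. They were preincubated 1 h with compound (100–0.0017 μM final, 0.37% DMSO), then stimulated with gramicidin 5 μM for 2 h. Supernatant IL-1β was measured by HTRF.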

Structure (SMILES) | IC50
CC(C)c1cc(CCC2CCCCC2)cc(C(C)C)c1CC(=O)N=S(N)(=O)c1cc(C(C)(C)O)n(-c2ccccc2)n1 (single isomer, unassigned) [Example 282, (S) or (R)-N-(amino(5-(2-hydroxypropan-2-yl)-1-phenyl-1H-pyrazol-3-yl)(oxo)-λ^6-sulfaneylidene)-2-(4-(2-cyclohexylethyl)-2,6-diisopropylphenyl) acetamide] | > 30 µM
CC(C)c1cc(COC2CCCC2)cc(C(C)C)c1CC(=O)N=S(N)(=O)c1cc(C(C)(C)O)n(-c2ccc(F)cc2)n1 (single isomer, unassigned) [Example 284, (S) or (R)-N-(amino(1-(4-fluorophenyl)-5-(2-hydroxypropan-2-yl)-1H-pyrazol-3-yl)(oxo)-λ^6-sulfaneylidene)-2-(4-((cyclopentyloxy)methyl)-2,6-diisopropylphenyl) acetamide] | > 30 µM
CC(C)c1cc(C(=O)CC2CCCCC2)cc(C(C)C)c1CC(=O)N=S(N)(=O)c1cc(C(C)(C)O)n(-c2ccccc2)n1 (single isomer, unassigned) [Example 286, (S) or (R)-N-(amino (5-(2-hydroxypropan-2-yl)-1-phenyl-1H-pyrazol-3-yl)(oxo)-λ^6-sulfaneylidene)-2-(4-(2-cyclohexylacetyl)-2,6-diisopropylphenyl) acetamide] | > 30 µM
CC(C)c1cc(COC2CCCC2)cc(C(C)C)c1CC(=O)N=S(N)(=O)c1cnc(C(C)(C)O)s1 (single isomer, unassigned) [Example 288, (S) or (R)-N-(amino(2-(2-hydroxypropan-2-yl)thiazol-5-yl)(oxo)-λ^6-sulfaneylidene)-2-(4-((cyclopentyloxy)methyl)-2,6-diisopropylphenyl) acetamide] | > 30 µM
CCc1cc2c(c(C(C)C)c1CC(=O)N=S(N)(=O)c1cc(C(C)(C)O)cs1)COC2 (single isomer, unassigned) [Example 296, (S) or (R)-N-(amino(4-(2-hydroxypropan-2-yl)thiophen-2-yl)(oxo)-λ^6-sulfaneylidene)-2-(6-ethyl-4-isopropyl-1,3-dihydroisobenzofuran-5-yl)acetamide] | > 30 µM

Second part, the compound after the results:

IC50 | Structure (SMILES)
> 30 µM | CCc1c2c(cc(C(C)C)c1CC(=O)N=S(N)(=O)c1cnc(C(C)(C)O)s1)COC2 (single isomer, unassigned) [Example 290, (S) or (R)-N-(amino(2-(2-hydroxypropan-2-yl)thiazol-5-yl)(oxo)-λ^6-sulfaneylidene)-2-(4-ethyl-6-isopropyl-1,3-dihydroisobenzofuran-5-yl)acetamide]
> 30 µM | CCc1cc2c(c(C(C)C)c1CC(=O)N=S(N)(=O)c1cnc(C(C)(C)O)s1)COC2 (single isomer, unassigned) [Example 292, (S) or (R)-N-(amino(2-(2-hydroxypropan-2-yl)thiazol-5-yl)(oxo)-λ^6-sulfaneylidene)-2-(6-ethyl-4-isopropyl-1,3-dihydroisobenzofuran-5-yl)acetamide]

same assay, conditions: Homo sapiens, THP-1, Table B1; 2% fetal bovine serum; class symbols; read-out: hTHP-1 IC50 (Average IC50 of compounds in hTHP-1 assay)

Structure (SMILES) | IC50
CC(C)c1cc(COC2CCCC2)cc(C(C)C)c1CC(=O)N=S(N)(=O)c1cc(C(C)(C)O)n(-c2ccc(F)cc2)n1 (single isomer, unassigned) [Example 283, (R) or (S)-N-(amino(1-(4-fluorophenyl)-5-(2-hydroxypropan-2-yl)-1H-pyrazol-3-yl)(oxo)-λ^6-sulfaneylidene)-2-(4-((cyclopentyloxy)methyl)-2,6-diisopropylphenyl) acetamide] | 0.2 to 1 µM
CC(C)c1cc(C(=O)CC2CCCCC2)cc(C(C)C)c1CC(=O)N=S(N)(=O)c1cc(C(C)(C)O)n(-c2ccccc2)n1 (single isomer, unassigned) [Example 285, (R) or (S)-N-(amino(5-(2-hydroxypropan-2-yl)-1-phenyl-1H-pyrazol-3-yl)(oxo)-λ^6-sulfaneylidene)-2-(4-(2-cyclohexylacetyl)-2,6-diisopropylphenyl) acetamide] | 1 to 5 µM
CC(C)c1cc(COC2CCCC2)cc(C(C)C)c1CC(=O)N=S(N)(=O)c1cnc(C(C)(C)O)s1 (single isomer, unassigned) [Example 287, (R) or (S)-N-(amino(2-(2-hydroxypropan-2-yl)thiazol-5-yl)(oxo)-λ^6-sulfaneylidene)-2-(4-((cyclopentyloxy)methyl)-2,6-diisopropylphenyl) acetamide] | 0.04 to 0.2 µM
CCc1cc2c(c(C(C)C)c1CC(=O)N=S(N)(=O)c1cc(C(C)(C)O)cs1)COC2 (single isomer, unassigned) [Example 295, (R) or (S)-N-(amino(4-(2-hydroxypropan-2-yl)thiophen-2-yl)(oxo)-λ^6-sulfaneylidene)-2-(6-ethyl-4-isopropyl-1,3-dihydroisobenzofuran-5-yl)acetamide] | 0.2 to 1 µM

The remaining lines, values ahead:

IC50 | Structure (SMILES)
5 to 30 µM | CCc1c2c(cc(C(C)C)c1CC(=O)N=S(N)(=O)c1cnc(C(C)(C)O)s1)COC2 (single isomer, unassigned) [Example 289, (R) or (S)-N-(amino(2-(2-hydroxypropan-2-yl)thiazol-5-yl)(oxo)-λ^6-sulfaneylidene)-2-(4-ethyl-6-isopropyl-1,3-dihydroisobenzofuran-5-yl)acetamide]
5 to 30 µM | CCc1cc2c(c(C(C)C)c1CC(=O)N=S(N)(=O)c1cnc(C(C)(C)O)s1)COC2 (single isomer, unassigned) [Example 291, (R) or (S)-N-(amino(2-(2-hydroxypropan-2-yl)thiazol-5-yl)(oxo)-λ^6-sulfaneylidene)-2-(6-ethyl-4-isopropyl-1,3-dihydroisobenzofuran-5-yl)acetamide]

same assay, conditions: Table B1; 2% fetal bovine serum; class symbols; read-out: hTHP-1 IC50 (Average IC50 of compounds in hTHP-1 assay)

Structure (SMILES) | IC50
CCc1cc2c(c(C(C)C)c1CC(=O)N=S(N)(=O)c1sc(C(C)(C)O)cc1F)COC2 (single isomer, unassigned) [Example 297, (R) or (S)-N-(amino (3-fluoro-5-(2-hydroxypropan-2-yl)thiophen-2-yl)(oxo)-λ^6-sulfaneylidene)-2-(6-ethyl-4-isopropyl-1,3-dihydroisobenzofuran-5-yl)acetamide] | 1 to 5 µM
CCc1cc2c(c(C(C)C)c1CC(=O)N=S(N)(=O)c1sc(C(C)(C)O)cc1F)COC2 (single isomer, unassigned) [Example 298, (S) or (R)-N-(amino(3-fluoro-5-(2-hydroxypropan-2-yl)thiophen-2-yl)(oxo)-λ^6-sulfaneylidene)-2-(6-ethyl-4-isopropyl-1,3-dihydroisobenzofuran-5-yl)acetamide] | 5 to 30 µM

Next, values leading:

IC50 | Structure (SMILES)
0.2 to 1 µM | CCc1c2c(cc(C(C)C)c1CC(=O)N=S(N)(=O)c1cc(C(C)(C)O)cs1)COC2 (single isomer, unassigned) [Example 293, (R) or (S)-N-(amino(4-(2-hydroxypropan-2-yl)thiophen-2-yl)(oxo)-λ^6-sulfaneylidene)-2-(4-ethyl-6-isopropyl-1,3-dihydroisobenzofuran-5-yl)acetamide]
5 to 30 µM | CCc1c2c(cc(C(C)C)c1CC(=O)N=S(N)(=O)c1cc(C(C)(C)O)cs1)COC2 (single isomer, unassigned) [Example 294, (S) or (R)-N-(amino(4-(2-hydroxypropan-2-yl)thiophen-2-yl)(oxo)-λ^6-sulfaneylidene)-2-(4-ethyl-6-isopropyl-1,3-dihydroisobenzofuran-5-yl)acetamide]

— patent publication US20230059136A1, “THE COMPOUNDS AND COMPOSITIONS FOR TREATING CONDITIONS ASSOCIATED WITH NLRP ACTIVITY” (Novartis AG, priority 2018, published 2023)
